What was measured:
Type in all cases: in vivo
barnyardgrass [1] = experiment: Upland soil application test (Test 2); details: 30 g ai/a, soil spray before emergence, 30 days later
In short: (§1)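 Soil-surface application of water-diluted wettable powder at 10 l per are, made one day after seeding and ahead of weed emergence. Plants stayed in the greenhouse for 30 days; injury was rated by air-dried weight versus untreated pots.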

common lambsquarters = experiment: Upland soil application test (Test 2); details: 30 g ai/a, soil spray before emergence, 30 days later
In short: as §1

foxtail meadow = experiment: Upland soil application test (Test 2); details: 30 g ai/a, soil spray before emergence, 30 days later
In short: as §1

green foxtail [2] = experiment: Upland soil application test (Test 2); details: 30 g ai/a, soil spray before emergence, 30 days later
In short: as §1

johnsongrass = experiment: Upland soil application test (Test 2); details: 30 g ai/a, soil spray before emergence, 30 days later
In short: as §1

large crabgrass = experiment: Upland soil application test (Test 2); details: 30 g ai/a, soil spray before emergence, 30 days later
In short: as §1

redroot pigweed = experiment: Upland soil application test (Test 2); details: 30 g ai/a, soil spray before emergence, 30 days later
In short: as §1

cotton = experiment: Upland foliar application test (Test 3), crop injury; details: 30 g ai/a, foliar spray at 2-3 leaves, 30th day
In short: (§2)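 Foliar post-emergence spray: diluted emulsifiable formulation applied at 5 l/are by pressure ULV sprayer once plants in upland-soil greenhouse pots reached 2-3 leaves. Degree of weed damage and crop injury rated on day 30 post-application.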

peanut = experiment: as above; details: 30 g ai/a, foliar spray at 2-3 leaves, 30th day
In short: as §2

soybean = experiment: as above; details: 30 g ai/a, foliar spray at 2-3 leaves, 30th day
In short: as §2

Sagittaria pygmaea [3] = experiment: Treatment of soil under submerged condition, pre-emergence (Test 4); details: 30 g ai/a granule, 30 days later
In short: (§3)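 Wagner pots of soil were seeded or planted with weed seeds or tubers under flooding, then 2–3-leaf rice seedling pairs were transplanted and grown in a greenhouse. One day later, before weed emergence, pots received a granule of the test composition at a predetermined amount. Weed emergence and rice injury were scored 30 days later.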

barnyardgrass [4] = experiment: as above; details: 30 g ai/a granule, 30 days later
In short: as §3

bulrush [5] = experiment: as above; details: 30 g ai/a granule, 30 days later
In short: as §3

rice = experiment: Treatment of soil under submerged condition, pre-emergence (Test 4), injury; details: 30 g ai/a granule, 30 days later
In short: as §3

Sagittaria pygmaea [6] = experiment: Treatment of soil under submerged condition, post-emergence (Test 5); details: 30 g ai/a granule, 30 days later
In short: (§4)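 Granule applied to submerged greenhouse pots at two-leaf barnyardgrass; transplanted 2–3-leaf rice present; weed damage and rice injury graded 30 days on.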

barnyardgrass [7] = experiment: as above; details: 30 g ai/a granule, post-emergence (barnyardgrass two-leaf stage), 30 days later
In short: as §4

bulrush [8] = experiment: as above; details: 30 g ai/a granule, 30 days later
In short: as §4

barnyardgrass [9] = experiment: Upland foliar application test by mixed formulations (Test 7); details: Echinochloa crus-galli, 720 h, applied alone, 30th day, read-out: Herbicidal effects (%) Barnyardgrass Ea; for pest or weed control at 1000 g/ha: 1 kg/ha; for pest or weed control at 300 g/ha: 0.3 kg/ha
Protocol: (§5) Resin-made 1/10,000-are pots were filled with the soil of an upland field. Redroot pigweed, morningglories, johnsongrass, barnyardgrass and green foxtail were separately seeded and were allowed to germinate in a green house. When each plant grew to the stage of 2-3 leaves, an emulsion formulated from predetermined amounts of two test compounds of different kinds in a similar manner to the method described in Formulation Example 16 was diluted with water to a predetermined dilution rate and then sprayed at an application rate equal to 5 l per are onto the foliage of each plant by means of a pressure-operated ULV (ultra low volume) sprayer. Influence to the weeds were observed on the 30th day after the spray of the herbicides. In the table, each Ea means an acutally measured value of herbicidal activities when two kinds of herbicides were mixed. Each Ec is an expected value for herbicidal activities, calculated in accordance with the below-described calculation formula proposed by Colby et al. [Colby, S. R., Weed 15, 20-22 (1967)]. Ea>Ec indicates the existence of synergistic action while […] action. [formula] Ec: Growth inhibition rate (%) expected when Ingredient I and Ingredient II are mixed.
(§6) Ex: Growth inhibition rate (%) when treated with Ingredient I alone.
(§7) Ey: Growth inhibition rate (%) when treated with Ingredient II alone.

green foxtail [10] = experiment: as above; details: applied alone, 30th day; for pest or weed control at 1000 g/ha / pest or weed control at 300 g/ha: Setaria viridis, 720 h, read-out: Herbicidal effects (%) Green foxtail Ea; for pest or weed control at 1000 g/ha: 1 kg/ha
Protocol: as §5, §6, §7

morningglories = experiment: as above; details: Ipomoea, 720 h, applied alone, 30th day, read-out: Herbicidal effects (%) Morningglory Ea; for pest or weed control at 1000 g/ha: 1 kg/ha; for pest or weed control at 300 g/ha: 0.3 kg/ha
Protocol: as §5, §6, §7

Row | Structure (SMILES) | Herbicidal effects Barnyardgrass (barnyardgrass [1]) | Herbicidal effects Common lambsquarters (common lambsquarters) | Herbicidal effects Foxtail meadow (foxtail meadow) | Herbicidal effects Green foxtail (green foxtail [2]) | Herbicidal effects Johnsongrass (johnsongrass) | Herbicidal effects Large crabgrass (large crabgrass) | Herbicidal effects Redroot pigweed (redroot pigweed) | Injury Cotton (cotton) | Injury Peanut (peanut) | Injury Soybean (soybean) | Herbicidal effects Sagittaria Pygmaea (Sagittaria pygmaea [3]) | Herbicidal effects Barnyardgrass (barnyardgrass [4]) | Herbicidal effects Bulrush (bulrush [5]) | Injury Rice (rice) | Herbicidal effects Sagittaria Pygmaea (Sagittaria pygmaea [6]) | Herbicidal effects Barnyardgrass (barnyardgrass [7]) | Herbicidal effects Bulrush (bulrush [8]) | pest or weed control at 300 g/ha (barnyardgrass [9]) [%] | pest or weed control at 300 g/ha (green foxtail [10]; 0.3 kg/ha) [%] | pest or weed control at 300 g/ha (morningglories) [%] | also measured
1 | COc1cc(OC)nc(Oc2ccccc2C=NOC(C)C)n1 [compound 6] | 4 (6-10 (Severe damages)) | 4 (6-10 (Severe damages)) | 5 (0-5 (Death)) | 5 (0-5 (Death)) | 5 (0-5 (Death)) | 4 (6-10 (Severe damages)) | 3 (11-40 (Medium damages)) | 0 (91-100 (No damages)) | 0 (91-100 (No damages)) | 0 (91-100 (No damages)) | 4 (6-10 (Severe damages)) | 4 (6-10 (Severe damages)) | 4 (6-10 (Severe damages)) | 0 (91-100 (No damages)) | 3 (11-40 (Medium damages)) | 4 (6-10 (Severe damages)) | 4 (6-10 (Severe damages)) | – | – | – | pest or weed control at 1000 g/ha (barnyardgrass [9]): 50%; pest or weed control at 1000 g/ha (green foxtail [10]): 30%; pest or weed control at 1000 g/ha (morningglories): 0%
2 | COc1cc(OC)nc(Oc2ccccc2C=NOCC=Cc2ccc(Cl)cc2Cl)n1 [compound 30] | 5 (0-5 (Death)) | 4 (6-10 (Severe damages)) | 5 (0-5 (Death)) | 5 (0-5 (Death)) | 5 (0-5 (Death)) | 5 (0-5 (Death)) | 5 (0-5 (Death)) | 0 (91-100 (No damages)) | 0 (91-100 (No damages)) | 0 (91-100 (No damages)) | 5 (0-5 (Death)) | 5 (0-5 (Death)) | 4 (6-10 (Severe damages)) | 0 (91-100 (No damages)) | 4 (6-10 (Severe damages)) | 5 (0-5 (Death)) | 4 (6-10 (Severe damages)) | 40 | 20 | 0 | Herbicidal effects (%) Green foxtail Ea (green foxtail [10]; 0.3 kg/ha): 20%
3 | COc1cc(OC)nc(Oc2ccccc2C=NOC2CCCCC2)n1 [Compound No. 3] | 3 (11-40 (Medium damages)) | 3 (11-40 (Medium damages)) | 3 (11-40 (Medium damages)) | 4 (6-10 (Severe damages)) | 4 (6-10 (Severe damages)) | 3 (11-40 (Medium damages)) | 3 (11-40 (Medium damages)) | 0 (91-100 (No damages)) | 0 (91-100 (No damages)) | 0 (91-100 (No damages)) | 5 (0-5 (Death)) | 4 (6-10 (Severe damages)) | 4 (6-10 (Severe damages)) | 0 (91-100 (No damages)) | 3 (11-40 (Medium damages)) | 3 (11-40 (Medium damages)) | 3 (11-40 (Medium damages)) | – | – | – | pest or weed control at 1000 g/ha (barnyardgrass [9]): 40%; pest or weed control at 1000 g/ha (green foxtail [10]): 20%; pest or weed control at 1000 g/ha (morningglories): 0%
4 | COc1cc(OC)nc(Oc2ccccc2C=NOCC=Cc2ccc(Cl)cc2)n1 [Compound No. 28] | 4 (6-10 (Severe damages)) | 4 (6-10 (Severe damages)) | 5 (0-5 (Death)) | 5 (0-5 (Death)) | 5 (0-5 (Death)) | 4 (6-10 (Severe damages)) | 4 (6-10 (Severe damages)) | 0 (91-100 (No damages)) | 0 (91-100 (No damages)) | 0 (91-100 (No damages)) | 3 (11-40 (Medium damages)) | 3 (11-40 (Medium damages)) | 3 (11-40 (Medium damages)) | 0 (91-100 (No damages)) | 4 (6-10 (Severe damages)) | 5 (0-5 (Death)) | 4 (6-10 (Severe damages)) | 50 | 30 | 0 | –
5 | COc1cc(OC)nc(Oc2ccccc2C=NOCC=C(C)C)n1 [Compound No. 7] | 5 (0-5 (Death)) | 4 (6-10 (Severe damages)) | 5 (0-5 (Death)) | 5 (0-5 (Death)) | 5 (0-5 (Death)) | 5 (0-5 (Death)) | 4 (6-10 (Severe damages)) | 0 (91-100 (No damages)) | 0 (91-100 (No damages)) | 0 (91-100 (No damages)) | 5 (0-5 (Death)) | 5 (0-5 (Death)) | 4 (6-10 (Severe damages)) | 1 (71-90 (Slight damages)) | 3 (11-40 (Medium damages)) | 5 (0-5 (Death)) | 5 (0-5 (Death)) | 30 | 50 | 10 | –
6 | COc1cc(OC)nc(Oc2ccccc2C=NOCC=Cc2ccccc2Cl)n1 [Compound No. 27] | 4 (6-10 (Severe damages)) | 4 (6-10 (Severe damages)) | 5 (0-5 (Death)) | 5 (0-5 (Death)) | 5 (0-5 (Death)) | 5 (0-5 (Death)) | 5 (0-5 (Death)) | 0 (91-100 (No damages)) | 0 (91-100 (No damages)) | 0 (91-100 (No damages)) | 4 (6-10 (Severe damages)) | 5 (0-5 (Death)) | 4 (6-10 (Severe damages)) | 0 (91-100 (No damages)) | 4 (6-10 (Severe damages)) | 5 (0-5 (Death)) | 4 (6-10 (Severe damages)) | 50 | 30 | 10 | –
